Assay results reported in ChEMBL document CHEMBL1926539, “Discovery of novel selective inhibitors of Staphylococcus aureus β-ketoacyl acyl carrier protein synthase III” (Eur J Med Chem, 2012).
≈ marks a conversion by molar mass, not a printed value.

Experiments:
[1] = Cytotoxicity against mouse NIH/3T3 cells assessed as cell survival at 100 nM after 24 hrs by MTT assay; format: cell-based, NIH3T3; details: read-out: Activity
Enterococcus faecium = assay: Antimicrobial activity against vancomycin-resistant Enterococcus faecium clinical isolate after 20 hrs by 2 fold serial broth dilution method; format: functional
[2] = Inhibition of Staphylococcus aureus recombinant GST-tagged KAS3 expressed in Escherichia coli (DE3) at 1:10 protein to drug ratio by fluorescence quenching analysis
Staphylococcus aureus [3] = assay: Antimicrobial activity against Staphylococcus aureus KCTC 1621 after 20 hrs by 2 fold serial broth dilution method; format: functional; details: KCTC 1621, 20 h
Enterococcus faecalis = assay: Antimicrobial activity against Enterococcus faecalis KCTC 2011 after 20 hrs by 2 fold serial broth dilution method; format: functional; details: KCTC 2011, 20 h
Staphylococcus aureus [4] = assay: Antimicrobial activity against methicillin-resistant Staphylococcus aureus CCARM 3114 after 20 hrs by 2 fold serial broth dilution method; format: functional; details: CCARM 3114, 20 h
Escherichia coli = assay: Antimicrobial activity against Escherichia coli KCTC 1682 after 20 hrs by 2 fold serial broth dilution method; format: functional; details: KCTC 1682, 20 h
NIH3T3 [5] = assay: Cytotoxicity against mouse NIH/3T3 cells after 24 hrs by MTT assay; format: cell-based; details: NIH3T3, 24 h
NIH3T3 [6] = assay: Cytotoxicity against mouse NIH/3T3 assessed as cell survival at MIC after 24 hrs by MTT assay; format: cell-based; details: nih3t3, 24 h

Compound | viability at 24 h, 0.1 µM [1] [%] | MIC (Enterococcus faecium) [µg/mL] | Kd [2] [µM] | MIC (Staphylococcus aureus [3]) [µg/mL] | MIC (Enterococcus faecalis) [µg/mL] | MIC (Staphylococcus aureus [4]) [µg/mL] | MIC (Escherichia coli) [µg/mL] | IC50 (NIH3T3 [5]) [µM] | Activity (NIH3T3 [6])
C=C/C(C)=C/[C@@]1(C)SC(=O)C(C)=C1O [THIOLACTOMYCIN] | 85 | 128 (≈ 609 µM) | 55.4 | – | – | – | – | – | –
O=[N+]([O-])c1ccccc1N/N=C/c1ccc(O)c(O)c1 | – | 256 (≈ 937 µM) | 3.18 | > 512 | 256 (≈ 937 µM) | > 512 | > 512 | – | –
Nc1ccc(NC(=O)NC2CCCCC2)cc1[N+](=O)[O-] | – | 256 (≈ 920 µM) | 649 | > 512 | 128 (≈ 460 µM) | > 512 | > 512 | – | –
CCCCCC12CCC(O)(CC1)CC2O (stereo not given) | – | > 512 | > 1000 | > 512 | > 512 | > 512 | > 512 | – | –
Oc1ccc(/C=N/c2cc(Cl)cc(Cl)c2)c(O)c1 | – | > 512 | 0.61 | 64 (≈ 227 µM) | 512 (≈ 1810 µM) | 128 (≈ 454 µM) | 64 (≈ 227 µM) | – | –
Cc1n[nH]c(C)c1CCC(=O)N/N=C/c1ccc(O)cc1O | – | > 512 | 0.23 | 128 (≈ 423 µM) | > 512 | 128 (≈ 423 µM) | 256 (≈ 847 µM) | – | –
COc1ccccc1NC(=O)c1nc[nH]n1 | – | > 512 | 34.1 | > 512 | > 512 | > 512 | > 512 | – | –
O=C(N/N=C/c1ccc(O)c(O)c1O)c1ccc(Cl)cc1Cl | – | 32 (≈ 93.8 µM) | 0.0072 | 4 (≈ 11.7 µM) | 32 (≈ 93.8 µM) | 4 (≈ 11.7 µM) | 64 (≈ 188 µM) | 10.9 | Non-toxic
CCOC(=O)/C(C#N)=C/c1ccc(O)cc1O | – | > 512 | 44 | > 512 | 256 (≈ 1100 µM) | 256 (≈ 1100 µM) | > 512 | – | –
Oc1ccc(/C=N/Nc2nccnc2Cl)c(O)c1 | – | 32 (≈ 121 µM) | 0.0003 | 1 (≈ 3.78 µM) | > 512 | 1 (≈ 3.78 µM) | > 512 | 10.3 | Non-toxic
Oc1ccc(/C=N/c2ccc(Cl)cc2Cl)c(O)c1 | – | > 512 | 0.72 | 128 (≈ 454 µM) | > 512 | 128 (≈ 454 µM) | 64 (≈ 227 µM) | – | –
Oc1ccc(/C=N/Nc2ccc(C(F)(F)F)cn2)c(O)c1 | 67 | 32 (≈ 108 µM) | 0.0008 | 2 (≈ 6.73 µM) | 64 (≈ 215 µM) | 4 (≈ 13.5 µM) | 512 (≈ 1720 µM) | – | –
CCOC(=O)N/N=C/c1ccc(O)cc1O | – | 256 (≈ 1140 µM) | 1.48 | 256 (≈ 1140 µM) | > 512 | 512 (≈ 2280 µM) | > 512 | – | –
Cc1cccc(NC(=O)CC2SC(=O)NC2=O)c1 (stereo not given) | – | > 512 | > 1000 | > 512 | > 512 | > 512 | > 512 | – | –
NC(=O)C1(C(N)=O)OC1c1ccc(Cl)c(Cl)c1 (stereo not given) | – | 32 (≈ 116 µM) | > 1000 | 256 (≈ 931 µM) | 256 (≈ 931 µM) | 256 (≈ 931 µM) | 256 (≈ 931 µM) | – | –
OC[C@@H]1O[C@H](Oc2cccc(Cl)c2)[C@H](O)[C@H](O)[C@H]1O | – | 256 (≈ 881 µM) | 0.36 | > 512 | > 512 | > 512 | > 512 | – | –
Cc1nc(CC(=O)c2c(C)cc(O)cc2O)cs1 | – | > 512 | > 1000 | > 512 | > 512 | > 512 | > 512 | – | –
Cc1nc2ccccc2c(=O)n1/N=C/c1ccc(O)cc1O | – | > 512 | 0.0009 | > 512 | > 512 | > 512 | > 512 | – | –
